Reference: patent US20200246284A1 (Academia Sinica, priority 2015, published 2020)
Where two headings read alike, the source gives them in different places.

Key:
[1] = system: AML cell lines; test: Cytotoxicity, panel of AML cell lines; assay type: cell-based, human
Text: Human cord blood CD34+ cells transduced with MLL-AF9 gene: MA-10, MA-18. Human bone marrow CD34+ cells transduced with MLL-AF9 gene: MA-23. Human cord blood CD34+ cells transduced with MLL-AF9 and N-ras genes: MA-9.3, MA-9.6. • b) Growth factor independent leukemic cell lines. Human MA-10 cells transduced with Flt3 ITD (W51) were adapted to in vitro proliferation without growth factors (Moore Laboratory).

[2] = system: Karpas-422; conditions: human
Experimental: (§1) After 72 hours, the cultures were pulsed with Alamar Blue overnight, and the fluorescent intensity of resulted cultures was measured by a Synergy H1 plate-reader (BioTek Inc).

[3] = molecular target: P-glycoprotein (P-gp) (Homo sapiens, UniProt P08183); test: P-gp mediated efflux in Caco-2 monolayers
P-glycoprotein (P-gp), sequence (P08183 whole entry): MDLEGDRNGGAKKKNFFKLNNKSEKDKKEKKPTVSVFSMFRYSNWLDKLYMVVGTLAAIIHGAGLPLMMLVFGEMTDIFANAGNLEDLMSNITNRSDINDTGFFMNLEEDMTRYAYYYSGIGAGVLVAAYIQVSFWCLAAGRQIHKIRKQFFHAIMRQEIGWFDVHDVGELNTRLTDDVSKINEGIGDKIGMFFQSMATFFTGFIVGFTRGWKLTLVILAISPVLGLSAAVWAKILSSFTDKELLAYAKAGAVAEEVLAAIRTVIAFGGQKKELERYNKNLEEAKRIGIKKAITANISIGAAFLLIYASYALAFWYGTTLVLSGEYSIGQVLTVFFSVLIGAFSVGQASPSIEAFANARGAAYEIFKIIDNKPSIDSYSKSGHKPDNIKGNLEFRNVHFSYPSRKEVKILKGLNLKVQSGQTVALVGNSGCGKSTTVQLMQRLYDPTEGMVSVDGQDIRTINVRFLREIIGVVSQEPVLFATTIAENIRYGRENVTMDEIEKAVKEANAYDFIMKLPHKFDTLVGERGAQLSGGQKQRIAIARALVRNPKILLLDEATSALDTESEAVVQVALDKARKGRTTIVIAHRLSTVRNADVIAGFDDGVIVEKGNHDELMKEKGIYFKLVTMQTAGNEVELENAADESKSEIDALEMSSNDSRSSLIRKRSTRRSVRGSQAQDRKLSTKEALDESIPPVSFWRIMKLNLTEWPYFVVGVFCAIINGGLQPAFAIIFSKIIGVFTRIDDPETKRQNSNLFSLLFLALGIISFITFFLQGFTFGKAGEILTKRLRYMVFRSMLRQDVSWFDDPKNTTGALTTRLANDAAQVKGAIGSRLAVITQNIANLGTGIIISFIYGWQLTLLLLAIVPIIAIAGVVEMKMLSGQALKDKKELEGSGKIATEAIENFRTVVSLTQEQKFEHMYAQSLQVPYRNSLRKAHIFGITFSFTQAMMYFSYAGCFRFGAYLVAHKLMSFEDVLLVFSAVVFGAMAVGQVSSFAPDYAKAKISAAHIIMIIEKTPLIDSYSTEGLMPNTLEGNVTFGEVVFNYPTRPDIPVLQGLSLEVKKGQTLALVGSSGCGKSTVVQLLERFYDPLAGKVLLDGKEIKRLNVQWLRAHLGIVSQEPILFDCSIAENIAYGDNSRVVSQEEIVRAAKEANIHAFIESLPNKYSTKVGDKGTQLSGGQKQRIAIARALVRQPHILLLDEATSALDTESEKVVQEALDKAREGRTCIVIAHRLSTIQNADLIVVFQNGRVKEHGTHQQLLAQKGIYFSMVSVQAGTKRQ

[4] = system: LY7 (OCH-Ly7); test: Cytotoxicity DLBCL; conditions: read-out: cytotoxicity IC50; LY7, DLBCL GCB
[5] = system: spontaneous murine B-cell lymphoma; conditions: mouse
[6] = system: SUDHL-4; conditions: human
Experimental: as §1

[7] = for Microsome stability, turnover: 60 mins
[8] = system: SET2; test: Cytotoxicity leukemia; assay type: cell-based; conditions: Homo sapiens, SET-2; SET2 JAK2-V617 mut
[9] = system: CCRF-CEM; test: Cytotoxicity leukemia; assay type: cell-based, human
[10] = system: Caco-2 cell monolayers; test: Caco-2 permeability; assay type: in vitro ADME, human
Text: The Caco-2 permeability assay is considered to be the industry gold standard for in vitro prediction of in vivo human intestinal permeability and bioavailability of orally administered drugs. The Caco-2 permeability assay uses an established method for predicting the absorption of therapeutic compounds across the GIT by measuring the rate of transport across a contiguous Caco-2 cell monolayer. […] The Caco-2 assay measures the passage of a test compound from a donor chamber into an acceptor chamber through a porous membrane on which a confluent Caco-2 monolayer forms a cellular barrier.

[11] = Pharmacokinetics, IV bolus 10 mg/kg; assay type: in vivo, Sprague-Dawley rats; conditions: rat
Experimental: Serial blood samples were collected from the jugular vein at 0, 5, 10, 15, 30, 45, 60, 90, 120, 150, 180, 240, 300, 360 min after dosing. […] All pharmacokinetic analysis was carried out using the WinNonlin Standard Edition Version 1.0 (Scientific Consulting Inc., Apex, NC, USA).

[12] = system: nude mice bearing prostate 22Rv/HL2; test: Complete blood count, 22Rv/HL2 xenograft mice; conditions: 24 hrs after last treatment
[13] = system: SHP77; test: Cytotoxicity LCLC/SCLC; assay type: cell-based, human
[14] = system: DLBCL (GBC) cell lines; test: Combination of BO-1055 with PUH71, TT46, bortezomib, doxorubicin (Table 25); assay type: cell-based; conditions: Homo sapiens
[15] = system: H1395; assay type: cell-based, human
[16] = system: BMMSC BM mesenchyme; test: Cytotoxicity normal tissue 72 hr; assay type: cell-based, human
[17] = system: H1755; assay type: cell-based, human
[18] = system: H417; test: Cytotoxicity SCLC 72 hr alamar blue; assay type: cell-based, human
[19] = system: H520; assay type: cell-based, human
[20] = system: H23; assay type: cell-based, human
[21] = system: H524; test: Cytotoxicity SCLC 72 hr alamar blue; assay type: cell-based, human
[22] = system: PC9/gefb4; assay type: cell-based, human
[23] = system: H562; test: Cytotoxicity SCLC 72 hr alamar blue; assay type: cell-based, human
[24] = system: HL-1 cardiomyocyte; test: Cytotoxicity normal tissue 72 hr; assay type: cell-based; conditions: HL-1, 72 hr
[25] = system: 16HBE SV40+ bronchial epithelium; assay type: cell-based, human
[26] = system: CALU-1; assay type: cell-based, human
[27] = system: CL141T; assay type: cell-based, human
[28] = system: H1650; assay type: cell-based, human
[29] = system: H322; assay type: cell-based, human
[30] = system: H209; test: Cytotoxicity SCLC 72 hr alamar blue; assay type: cell-based, human
[31] = system: H249; test: Cytotoxicity SCLC 72 hr alamar blue; assay type: cell-based, human
[32] = male, Sprague-Dawley, plasma, IV 10 mg/kg, n=5
[33] = male, Sprague-Dawley, plasma, iv, 10 mg/kg, n=5

**Q.** For CN(C)CCNC(=O)c1cccc(NC(=O)Nc2ccc(N(CCCl)CCCl)cc2)c1 [BO-1055, Ureidomustine], which IC50 ([1]; Homo sapiens, THP1 and MOLM13) is on record?
**A.** 0.18 to 0.45 µM

**Q.** What about the “increase of cytotoxicity by MLL-AF9” value ([1]; MLL-AF9 transduced vs normal CB or BM CD34+) of the same molecule?
**A.** 25-40 fold

**Q.** And the IC50 [2]?
**A.** 5.85 µM

**Q.** What about the P-gp assessment [3] of the same molecule?
**A.** Possible P-gp liabilities

**Q.** What about the IC50 [4] of the same molecule?
**A.** 5.06 µM

**Q.** What about the IC50 [5] of the same molecule?
**A.** 0.46 µM

**Q.** What about the IC50 [6] of the same molecule?
**A.** 1.95 µM

**Q.** And the “Microsome stability, turnover” value [7]?
**A.** 75%

**Q.** What about the “Microsome stability, turnover” value ([7]; listed as ureidomustine) of the same molecule?
**A.** 75% (60 mins turnover %)

**Q.** And the “% Remaining at 60 min” value ([7]; RLM)?
**A.** 25%

**Q.** What about the “MR (metabolic rate)” value ([7]; RLM, 60 min) of the same molecule?
**A.** 0.0203 nmol/min/mg

**Q.** And the IC50 [8]?
**A.** > 10 µM

**Q.** And the IC50 [9]?
**A.** 0.13 ± 0.002 µM

**Q.** And the “Papp (B to A)” value ([10]; 10 μM)?
**A.** Papp (B to A) = 7.5 × 10−6 cm/sec

**Q.** And the mass balance ([10]; A→B and B→A directions)?
**A.** < 50%

**Q.** And the “Papp coefficient A→B” value ([10]; Caco-2)?
**A.** not detected

**Q.** What about the tissue distribution ([11]; IV 10 mg/kg) of the same molecule?
**A.** accumulated mainly in the kidney, with only a limited amount detected in the brain

**Q.** And the Cl ([11]; IV 10 mg/kg, n=5, 10 mg/kg)?
**A.** 39.2 ± 10.6 mL/min per kg

**Q.** And the AUC [11, 32]?
**A.** 4450 ng·h/mL

**Q.** And the Cmax [11, 32]?
**A.** 13400 ± 6170 ng/mL

**Q.** What about the clearance [11, 33] of the same molecule?
**A.** 39.4 ± 10.6 mL/min/kg

**Q.** What about the half-life [11, 33] of the same molecule?
**A.** 46.2 min

**Q.** And the BASO [12]?
**A.** 0.06 10^3/μL

**Q.** What about the EOS [12] of the same molecule?
**A.** 0.14 10^3/μL

**Q.** What about the LYM [12] of the same molecule?
**A.** 1.52 10^3/μL

**Q.** And the MONO [12]?
**A.** 0.08 10^3/μL

**Q.** What about the NEU [12] of the same molecule?
**A.** 0.83 10^3/μL

**Q.** And the PLT [12]?
**A.** 195 10^3/μL

**Q.** And the RBC [12]?
**A.** 9.52 10^6/μL

**Q.** And the WBC [12]?
**A.** 2.98 10^3/μL

**Q.** What about the IC50 [13] of the same molecule?
**A.** 40 µM

**Q.** And the IC50 ([14]; KARPAS-422, read-out: IC50 single agent)?
**A.** 5.85 µM

**Q.** What about the IC50 ([14]; OCI-LY19, read-out: IC50 single agent) of the same molecule?
**A.** 0.287 µM

**Q.** What about the IC50 ([14]; OCI-Ly8, read-out: IC50 single agent) of the same molecule?
**A.** 0.224 µM

**Q.** What about the IC50 ([14]; OCI-Ly18, read-out: IC50 single agent) of the same molecule?
**A.** 0.608 µM

**Q.** What about the IC50 ([14]; SU-DHL-4, read-out: IC50 single agent) of the same molecule?
**A.** 1.95 µM

**Q.** What about the IC50 ([14]; SU-DHL-5, read-out: IC50 single agent) of the same molecule?
**A.** 4.14 µM

**Q.** What about the IC50 ([14]; SU-DHL-6, read-out: IC50 single agent) of the same molecule?
**A.** 5.93 µM

**Q.** And the IC50 ([14]; Toledo, read-out: IC50 single agent)?
**A.** 8.95 µM

**Q.** And the IC50 ([14]; read-out: IC50 single agent)?
**A.** 3.19 µM

**Q.** Which IC50 [15] does the source give for N.N.[Cl][Pt][Cl] [Cisplatin] here?
**A.** ≥ 15 µM

**Q.** What about the IC50 [16] of the same molecule?
**A.** 20 µM

**Q.** What about the IC50 [17] of the same molecule?
**A.** ≥ 15 µM

**Q.** What about the IC50 [18] of the same molecule?
**A.** 2.01 µM

**Q.** And the IC50 [19]?
**A.** 9.1 µM

**Q.** What about the IC50 [20] of the same molecule?
**A.** 2.5 µM

**Q.** And the IC50 [21]?
**A.** 0.41 µM

**Q.** What about the IC50 [22] of the same molecule?
**A.** ≥ 35 µM

**Q.** And the IC50 [23]?
**A.** 1.39 µM

**Q.** And the IC50 [24]?
**A.** 47 µM

**Q.** And the IC50 [25]?
**A.** 3.6 µM

**Q.** And the IC50 [26]?
**A.** ≥ 20 µM

**Q.** What about the IC50 [27] of the same molecule?
**A.** 2.45 µM

**Q.** And the IC50 [28]?
**A.** 7.51 µM

**Q.** What about the IC50 [29] of the same molecule?
**A.** ≥ 10 µM

**Q.** What about the IC50 [30] of the same molecule?
**A.** 0.31 µM

**Q.** And the IC50 [31]?
**A.** 1.51 µM
